Here are results for 9 compounds from patent US20250017938A1, “COMBINATION THERAPIES OF FASN INHIBITORS WITH THYROID HORMONE RECEPTOR AGONISTS” (Sagimet Biosciences Inc., priority 2023, published 2025).

Assay [1] addresses FASN enzyme isolated from SKBr3 cells (Homo sapiens (Human), UniProt P49327). Put plainly: FASN biochemical activity (fluorescence measurement of CoA release, CPM dye).
Assay [2] deals with Male C57BL/6J Gubra-Amylin-MASH (GAN) diet-induced obese mice. The assay is described as follows: Gubra-Amylin-MASH (GAN) diet-induced obese mice with biopsy-confirmed MASH, 6 weeks treatment. The format is in vivo, mouse. As to conditions: 6-week treatment; for response rate (RR) for reduction of NAS ≥2-points: TVB-3664 5 mg/kg, resmetirom 3 mg/kg PO QD. Here is the method: This study was designed to evaluate FASN inhibitor alone and in combination with RES on liver histology in biopsy-confirmed MASH mice.
Method: Male C57BL/6J Gubra-Amylin-MASH (GAN) diet-induced obese mice with histologically confirmed NAS (≥5) and fibrosis stage (F1-F3) were randomized and treated with either TVB-3664 (a surrogate FASN inhibitor for denifanstat, 5 mg/kg, PO, QD) or resmetirom (RES; MGL-3196)(3 mg/kg, PO, QD) individually or in combination for 6 weeks (n=10-12 for each group, Gubra, Denmark). Treatment groups are NC (normal chow diet control); VEH (MASH vehicle control); FASN (TVB-3664, FASN inhibitor, surrogate for denifanstat); RES (resmetirom) and COMBO (combination of TVB-3664 and resmetirom).

Assay [3] relates to primary isolated human stellate cells (HSC). The assay is described as follows: Primary human hepatic stellate cells stimulated with TGF-β1, total collagen (in vitro fibrosis study). In kind it is cell-based. Conditions: primary human hepatic stellate cells, 10 ng/ml TGF-β, 4 days.
Method: Primary isolated human stellate cells (HSC) were investigated in the study. The cells were maintained under standard culture conditions and in established culture medium.
Study Model: Viability screening and in vitro fibrosis study, 24 well plate format, 4 day stimulation with recombinant human TGF-β1. In this study, 2.5 and 10 ng/ml TGF-β1 were used.
(§1) Primary HSCs were seeded on t=day-1 and cultured in 24 well plates for 24 hours. […] Cells were incubated for an additional 96 hours (t=day 4). Conditioned medium samples were collected for expression analysis of secreted proteins. All wells were used for an alamarBlue assay to assess cell viability/metabolic activity. A separate plate was used at t=day 0 as reference for the alamarBlue assay. Next, the cell-matrix fraction was collected for measurement of total collagen and cell protein levels.
Both test compounds were dissolved in DMSO. Working concentrations were prepared from a stock concentration that is 1000-fold that of the highest working concentration. All controls were incubated with the same DMSO concentration as that present in the highest working concentration.
Total Collagen assay was performed according to the manufacturer's protocol.
Total Protein assay, for use with the Total Collagen assay, was performed according to the manufacturer's protocol. Protein levels were used to correct for differences in cell contents between samples.
Significance of differences between the groups was calculated either parametrically or non-parametrically, using the computer program SPSS. For nonparametric calculations, a Kruskal-Wallis test for several independent samples was used, followed by a Mann-Whitney U-test for independent samples. For parametric calculations, a One-way ANOVA for multiple comparisons was used, followed by Dunnett or Bonferroni's correction.
The subject of assay [4] is Male Ldlr -/-. Leiden mice fed with fast food diet (FFD). Put plainly: LDL receptor knockout (Ldlr-/-.Leiden) NASH mice on fast food diet, 10 weeks treatment. The format is in vivo, mouse. Conditions: for plasma ALT/AST / plasma total cholesterols / plasma triglycerides: TVB-3664 5 mg/kg, resmetirom 3 mg/kg PO QD alone or in combination, 4 weeks, sustained to 10 weeks; for LDL-C / VLDL-C: lipoprotein analysis. Here is the method:
This study was designed to evaluate FASN inhibitor alone and in combination with resmetirom on plasma biomarkers and liver histology in LDL receptor knockout (Ldlr−/−. Leiden) NASH mice. FASN inhibitor and resmetirom were also evaluated in vitro in hepatic stellate cells (HSCs) for direct anti-fibrotic effects.
Male Ldlr −/−. Leiden mice were fed with fast food diet (FFD) for 18 weeks to induce NASH features and treated with either TVB-3664 (a surrogate FASN inhibitor for denifanstat, 5 mg/kg, PO, QD) or THRb agonist resmetirom (MGL-3196, 3 mg/kg, PO, QD) alone or in combination for 10 weeks. Endpoints included liver enzymes, lipids and liver histology. Primary human HSCs were stimulated by TGF-b1 and treated with denifanstat or resmetirom at various concentrations (TNO, Netherlands).

In assay [5] the test system is NASH/MASH. Conditions: NASH/MASH trials; cited from earlier work.
Assay [6] deals with primary isolated human stellate cells (HSC). Put plainly: Primary human hepatic stellate cells stimulated with TGF-β1, PAI-1 secretion. The format is cell-based. Conditions: primary human HSCs, TGF-b1-stimulated.
Method: as §1
Assay [7] relates to C57BL/6J mice fed a high-fat/fructose/cholesterol diet. The assay is described as follows: Reversal of established diet-induced, biopsy-confirmed NASH in mice (HFFCD 44 weeks + 8 weeks treatment). As to conditions: pirfenidone co-administered with Compound 002-386, 8 weeks. The format is in vivo, mouse. The text has this:
C57BL/6J mice were fed a high-fat/fructose/cholesterol diet (HFFCD) for 44 weeks. For an additional eight weeks, animals continued a high-fat/fructose/cholesterol diet and received oral once-per-day treatments of either Compound 002-386, the anti-fibrotic pirfenidone, both Compound 002-386 and pirfenidone, or vehicle control. At the end of the study, analyses included histological assessment (NAFLD Activity Score (NAS) and Fibrosis Stage), gene expression (liver) total triglyceride and cholesterol content (liver and plasma), levels of alanine transaminase (ALT), and aspartate transaminase (AST) in plasma and serum cytokine levels. […]
Blood and plasma assays (triglycerides (TG), total-cholesterol (TC), alanine transaminase (ALT), aspartate transaminase (AST)): Blood samples were collected in heparinized tubes and plasma was separated and stored at −80° C. until analysis. TG, TC, ALT, AST were measured using commercial kits (Roche Diagnostics, Germany) on the Cobas™ C-501 autoanalyzer according to the manufacturer's instructions.
NAFLD activity score (NAS) and fibrosis stage: Liver samples were fixed in formalin, paraffin embedded, and sections were stained with hematoxylin and eosin (H&E) and Sirius Red. Samples were scored for NAS and fibrosis stage (outlined below) using of the clinical criteria outlined by Kleiner et al. 2005. […]

In assay [8] the test system is NASH/MASH. Conditions: cited from earlier work.

For the compound `N#Cc1ccc(C2(F)CCN(C(=O)c3ccc(Cl)c(NC(=O)c4ccc(N5CCC5)nc4)c3)CC2)nc1` [Compound 001-57], the midpoint of inhibition in assay [1], the IC50, lay at 30 nM.
On the same count and under the same terms, as for `CCc1cc(C)c(-c2ncc(C3CCOC3)[nH]2)cc1C(=O)N1CCC(c2ccc(C#N)cc2)CC1` (stereo not shown) [Compound 001-192], the figure is 300 nM; as for `CCc1nnc(-c2cc(C(=O)N3CCC(c4ccc(C#N)cc4)CC3)c(C)cc2C2CC(F)(F)C2)o1` [Compound 001-231], 300 nM; as for `CC(C)CNC(=O)Nc1cc(C(=O)N2CCC(c3ccc(C#N)cn3)CC2)cnn1` [Compound 001-305], greater than 50000 nM.
Regarding `CC(C)c1cc(Oc2c(Cl)cc(-n3nc(C#N)c(=O)[nH]c3=O)cc2Cl)n[nH]c1=O` [Compound A, resmetirom], in assay [2], the “lobular inflammation, 1-point RR” value is 8% and the “steatosis, RR for 1-point reduction” value stood at 50%. Moreover, in assay [3], the collagen production result is on record as “did not display the same effect”.
Take `COCc1[nH]c(C(F)(F)F)nc1-c1cc(C(=O)N2CC(c3ccc(C#N)cc3)C2)c(C)cc1C` [TVB-3664]: in assay [2], the “lobular inflammation, 1-point RR” value amounted to 42%; the “steatosis, RR for 1-point reduction” value was determined as 17%; the “response rate (RR) for reduction of NAS ≥2-points” value was 33%. Also, in assay [4], the “plasma ALT/AST” value was “rapidly reduced”, the plasma total cholesterols entry was “rapidly reduced”, the plasma triglycerides entry is given as “rapidly reduced” and the LDL-C result was “significantly reduced”. In addition, the VLDL-C result in assay [4] is listed as “significantly reduced”.
As for `Cc1nnc(-c2cc(C(=O)N3CCC(c4ccc(C#N)cc4)CC3)c(C)cc2C2CCC2)[nH]1` [denifanstat], the “liver fat and biomarkers associated with inflammation and fibrosis” value in the assay with NASH/MASH [5] was “improvements in liver fat and biomarkers associated with inflammation and fibrosis”. Further, the collagen production entry in assay [3] is on record as “decreased”. In assay [6], the “plasminogen 1 (PAI-1) secretion” value is on record as “decreased”.
For `Cc1ccc(=O)n(-c2ccccc2)c1` [pirfenidone], the liver fibrosis entry in assay [7] is recorded as “further reduced liver fibrosis”.
Consider `CC(C)c1cc(Oc2c(Cl)cc(-n3nc(C#N)c(=O)[nH]c3=O)cc2Cl)n[nH]c1=O` [resmetirom], for which, in assay [2], the “response rate (RR) for reduction of NAS ≥2-points” value is 25%. The “NASH/MASH resolution and fibrosis improvement” value in the assay with NASH/MASH [8] (Phase III clinical trial) was “significant NASH/MASH resolution and fibrosis improvement”. For the same compound, the histology response rates in the assay on NASH/MASH [8] (human, in vivo) was less than 50%. Moreover, the “plasminogen 1 (PAI-1) secretion” value in assay [6] was “not”. In addition, in assay [4], the “plasma ALT/AST” value is given as “rapidly reduced”, the plasma total cholesterols result is reported as “rapidly reduced”, the plasma triglycerides result was “rapidly reduced” and the LDL-C entry is “significantly reduced”. Moreover, in assay [4], the VLDL-C entry is given as “significantly reduced”.
